The target of data set [1] is T1, NaV1.7 (Homo sapiens, UniProt Q15858).
T1 construct: expressed in transfected cells; host or cells: HEK293 (tetracycline-inducible)
Put plainly: Automated patch clamp (Qube 384), external block of NaV1.7. Particulars: IC50, compound in external solution, HEK293 cells, read-out: Nav1.7 Extracellular Inhibition. The format is cell-based. Here is the method: NaV1.7 was expressed in HEK293 cells upon induction with tetracycline. Cells were cultured in DMEM containing 10% dialyzed Fetal Bovine Serum (VWR, Radnor, Pa.), 1% Glutamax (VWR, Radnor, Pa.), 1% Penicillin-Streptomycin (VWR, Radnor, Pa.), 100 mg/L Hygromycin (Thermo Fisher Scientific, Waltham, Mass. and 5 mg/L Blasticidin (Alfa Aesar, Haverhill, Mass.). Cells were grown and maintained at 37° C. in a humidified environment containing 10% CO2 in air. Cells were detached from the culture flask for passage and harvested using 0.05% Trypsin-EDTA (Thermo Fisher Scientific, Waltham, Mass.). To induce NaV1.7, cells were induced with tetracycline (0.1-1 μg/mL, IBI Scientific, Peosta, Iowa) the day before recording.
Before experiments, cells were washed with DPBS (VWR, Radnor, Pa.), digested with Detachin (VWR Radnor, Pa.) and then triturated 10 times in CHO Serum-Free Media (VWR Radnor, Pa.) to resuspend the cells and to break apart cell aggregates. Cells were counted and the final concentration was set at 2-5 million cells per mL.
The intracellular solution contained the following: 140 mM CsF, 1 mM/5 mM EGTA/CsOH, 10 mM HEPES, 10 mM NaCl, adjusted to pH 7.3 with CsOH, and osmolality to 320 with OSM solution. The external solution contained the following: 145 mM NaCl, 4 mM KCl, 1 mM MgCl2, 2 mM CaCl2), 10 mM HEPES, 10 mM Glucose, adjusted to pH 7.4 with CsOH and osmolality to 305 with OSM solution. The OSM solution was a normal Ringer solution containing (in mM) NaCl 155, HEPES 10, sucrose, KCl 3.5, CaCl2) 1.5, MgCl2 1 adjusted to pH 7.4 with NaOH. All chemicals are from Sigma-Aldrich, St. Louis, Mo. In order to test the degree of internal block by test compounds, the compounds were dissolved in internal solution at the indicated test concentration. […] In order to test the degree of external block by test compounds the compounds were dissolved in external solution at the indicated test concentration.
Automated Patch Clamps were performed on Qube 384 (Sophion Bioscience, Woburn Mass.) with multihole Qchips at a temperature setting of 22 degrees. The whole cells configuration was formed with default Qube seal and break-in parameter. The membrane potential was held at −100 mV before the voltage protocol began. Two voltage protocols were followed.
Step 1: Cells were held at −100 mV with a depolarized pulse to −20 mV for 10 ms, the interval was set at 5 s. Currents were corrected by default leak subtraction from every pulse. The duration was set at 5 mins.
Step 2: Cells were held at −100 mV with a depolarized pulse to −20 mV for 10 ms. The frequency was 5 Hz. Currents were corrected by leak subtraction calculated before step 2. The duration was set at 4 mins.
After Step 2, the external solution was changed with solutions containing test compounds. Qchips were held at −100 mV without pulsing. The total solution switching time was 8 minutes. After the external solution exchange, cells were recorded using the same procedure as step 2 for 10 minutes.
Data analysis was performed by Sophion Analyzer. Data were corrected with control cells (Non-Drug). The IC50 data were plotted with DR-plots/Hill function (a dose-response plot with a Hill fit). Representative examples of the invention were tested for extracellular inhibition of NaV 1.7 in the automated patch clamp assay. Activity Range is reported as IC50: “++++” ([…], “+++” (1-3 μM), “++” ([…]) or “+” (>10 μM). The results are presented below.
(In general: Patch clamp records ionic current or voltage across a cell membrane.)

The nature of data set [2]: PAMPA membrane permeability assay. Particulars: permeability coefficient, pH 7.4 buffer, GIT lipid, 4 hours incubation. The format is in vitro ADME. The gist of the method: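 Passive diffusion across a GIT-lipid-painted artificial membrane at pH 7.4, with a 50 uM donor stock diluted from DMSO and a 4 h incubation. UV spectra of the donor, acceptor and reference plates were read, and the permeability coefficient was calculated from the AUCs, in 10^−6 cm/s.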
On the technique in general: PAMPA measures passive passage across an artificial lipid membrane.

The target of data set [3] is T1, NaV1.7. Put plainly: Automated patch clamp (Qube 384), internal block of NaV1.7. It is filed as cell-based. The note with it: IC50, compound in internal solution, HEK293 cells, read-out: Nav1.7 Intracellular Inhibition. The gist of the method:
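Tetracycline-induced HEK293 cells, whole-cell Qube recording at 22 degrees; compounds dissolved in internal solution (CsF-based, pH 7.3), exchanged after baseline. Held at −100 mV, 10 ms pulses to −20 mV at 5 Hz for 10 min; remaining current (last 3 points) vs baseline, rundown-corrected with no-drug cells; Hill-fit IC50.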

T1 sequence (Q15858 whole entry): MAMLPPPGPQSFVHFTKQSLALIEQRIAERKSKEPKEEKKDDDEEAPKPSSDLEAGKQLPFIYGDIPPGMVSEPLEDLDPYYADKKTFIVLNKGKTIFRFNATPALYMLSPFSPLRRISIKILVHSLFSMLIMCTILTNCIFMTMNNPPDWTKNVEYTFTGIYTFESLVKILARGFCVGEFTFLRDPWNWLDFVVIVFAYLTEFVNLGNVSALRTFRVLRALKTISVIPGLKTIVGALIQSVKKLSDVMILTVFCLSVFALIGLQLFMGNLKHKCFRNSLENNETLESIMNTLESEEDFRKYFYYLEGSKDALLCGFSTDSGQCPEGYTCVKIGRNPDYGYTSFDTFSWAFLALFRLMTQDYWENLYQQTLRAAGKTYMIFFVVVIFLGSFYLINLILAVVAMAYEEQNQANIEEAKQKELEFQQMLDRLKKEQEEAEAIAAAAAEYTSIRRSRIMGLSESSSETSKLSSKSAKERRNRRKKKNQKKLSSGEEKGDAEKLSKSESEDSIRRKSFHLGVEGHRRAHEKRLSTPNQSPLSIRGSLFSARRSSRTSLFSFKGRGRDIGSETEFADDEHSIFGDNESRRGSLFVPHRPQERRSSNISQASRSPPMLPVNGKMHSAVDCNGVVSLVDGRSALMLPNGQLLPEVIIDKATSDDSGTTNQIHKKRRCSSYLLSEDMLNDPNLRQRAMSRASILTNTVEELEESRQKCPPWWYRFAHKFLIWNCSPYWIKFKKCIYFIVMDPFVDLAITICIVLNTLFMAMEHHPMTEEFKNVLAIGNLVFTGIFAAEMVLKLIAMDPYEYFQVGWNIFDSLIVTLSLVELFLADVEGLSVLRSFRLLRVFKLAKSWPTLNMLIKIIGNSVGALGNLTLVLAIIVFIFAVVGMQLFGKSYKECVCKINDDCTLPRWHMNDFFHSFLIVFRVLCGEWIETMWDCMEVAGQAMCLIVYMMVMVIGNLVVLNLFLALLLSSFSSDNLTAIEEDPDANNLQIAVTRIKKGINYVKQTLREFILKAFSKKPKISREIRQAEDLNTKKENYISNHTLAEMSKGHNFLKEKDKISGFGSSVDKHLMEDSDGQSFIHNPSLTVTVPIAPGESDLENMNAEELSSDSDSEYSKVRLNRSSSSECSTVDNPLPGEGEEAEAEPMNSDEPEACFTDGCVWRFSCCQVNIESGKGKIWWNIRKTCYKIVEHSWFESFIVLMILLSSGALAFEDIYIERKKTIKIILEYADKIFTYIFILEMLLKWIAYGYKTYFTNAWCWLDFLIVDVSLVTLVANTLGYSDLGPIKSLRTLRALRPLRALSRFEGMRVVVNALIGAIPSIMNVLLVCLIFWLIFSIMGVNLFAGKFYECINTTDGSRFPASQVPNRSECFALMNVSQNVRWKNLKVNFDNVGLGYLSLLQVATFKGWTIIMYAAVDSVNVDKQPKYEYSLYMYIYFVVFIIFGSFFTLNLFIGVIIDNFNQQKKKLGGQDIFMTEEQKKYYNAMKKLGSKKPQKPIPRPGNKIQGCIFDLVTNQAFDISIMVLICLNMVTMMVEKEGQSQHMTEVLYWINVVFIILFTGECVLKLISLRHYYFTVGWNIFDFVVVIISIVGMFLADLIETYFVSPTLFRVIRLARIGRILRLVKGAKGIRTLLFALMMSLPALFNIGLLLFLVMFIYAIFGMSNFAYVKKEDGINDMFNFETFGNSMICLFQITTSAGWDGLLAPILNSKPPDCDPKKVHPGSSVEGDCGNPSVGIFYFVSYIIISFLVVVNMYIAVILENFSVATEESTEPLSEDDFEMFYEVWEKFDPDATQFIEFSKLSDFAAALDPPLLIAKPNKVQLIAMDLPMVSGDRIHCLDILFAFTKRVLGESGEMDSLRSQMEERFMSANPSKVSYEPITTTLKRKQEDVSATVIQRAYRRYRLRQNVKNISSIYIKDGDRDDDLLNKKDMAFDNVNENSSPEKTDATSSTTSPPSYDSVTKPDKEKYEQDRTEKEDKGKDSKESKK

Consider `COC(=O)c1cccc(C[N+]2(CC(=O)Nc3c(C)cccc3C)CCCCC2)c1.[Br-]` [Compound 35A, 1-(2-((2,6-dimethylphenyl)amino)-2-oxoethyl)-1-(3-(methoxycarbonyl)benzyl) piperidin-1-ium bromide], for which the results for the IC50 at NaV1.7 [1] and on NaV1.7 [3] were over 10 µM and 1 to 3 µM, respectively. Also, the “PAMPA (10^−6 cm/s)” value in data set [2] is “+ (“+” (<0.1 10^−6 cm/s))”.
On the same counts, the results for `CCCc1cccc(C)c1NC(=O)C[N+]1(Cc2ccccc2)CCCCCC1.[Br-]` [Compound 75A] are 3 to 10 µM, 1 to 3 µM and “+ (“+” (<0.1 10^−6 cm/s))”.
For `CCC(=O)OC1CCC[N+](CC(=O)Nc2c(C)cccc2C)(Cc2ccccc2)C1.[Br-]` (stereo not shown) [Compound 52A, 1-benzyl-1-(2-((2,6-dimethylphenyl)amino)-2-oxoethyl)-3-(propionyloxy) piperidin-1-ium bromide], the “PAMPA (10^−6 cm/s)” value in data set [2] was “+ (“+” (<0.1 10^−6 cm/s))”. The IC50 at NaV1.7 [3] is under 0.3 µM.
As for `COC(=O)C1CC[N+](CC(=O)Nc2c(C)cccc2C)(Cc2ccccc2)CC1.[Br-]` (stereo not shown) [Compound 44A, 1-benzyl-1-(2-((2,6-dimethylphenyl)amino)-2-oxoethyl)-4-(methoxycarbonyl) piperidin-1-ium bromide], the values for the IC50 at NaV1.7 [1] and at NaV1.7 [3] were over 10 µM and under 0.3 µM, respectively. In addition, in data set [2], the “PAMPA (10^−6 cm/s)” value is “+ (“+” (<0.1 10^−6 cm/s))”.
The matching figures for `Cc1cccc(C)c1C(=O)OCC[N+]1(Cc2ccccc2)CCCCCC1.[Br-]` [Compound 82A, 1-benzyl-1-(2-((2,6-dimethylbenzoyl)oxy)ethyl) azepan-1-ium bromide]: 3 to 10 µM, 0.3 to 1 µM and “+ (“+” (<0.1 10^−6 cm/s))”.
On the same counts, the results for `CCCCNc1ccc(NC(=O)C[N+]2(Cc3ccccc3)CCCCCC2)cc1.O=C[O-]` [Compound 41A, 1-benzyl-1-(2-((4-(butylamino)phenyl)amino)-2-oxoethyl) azepan-1-ium formate] are over 10 µM, 3 to 10 µM and “+ (“+” (<0.1 10^−6 cm/s))”.
Turning to `Cc1cccc(C(C)C)c1NC(=O)C[N+]1(Cc2ccccc2)CCCCCC1.[Br-]` [Compound 74A], the “PAMPA (10^−6 cm/s)” value in data set [2] was “+ (“+” (<0.1 10^−6 cm/s))”. Moreover, the IC50 at NaV1.7 [3] lay within 0.3 to 1 µM.
Consider `COC(=O)c1ccccc1C[N+]1(CC(=O)Nc2c(C)cccc2C)CCCCC1.[Br-]` [Compound 37A, 1-(2-((2,6-dimethylphenyl)amino)-2-oxoethyl)-1-(2-(methoxycarbonyl)benzyl) piperidin-1-ium bromide], for which the IC50 at NaV1.7 [1] was over 10 µM; at NaV1.7 [3] it was 0.3 to 1 µM. Besides, the “PAMPA (10^−6 cm/s)” value in data set [2] is reported as “+ (“+” (<0.1 10^−6 cm/s))”.
On the same counts, the results for `CCCNC(=O)C1CCC[N+](CC(=O)Nc2c(C)cccc2C)(Cc2ccccc2)C1` (stereo not shown) [Compound 57A] are 3 to 10 µM, 0.3 to 1 µM and “+ (“+” (<0.1 10^−6 cm/s))”.
`Cc1cccc(-c2ccccc2)c1NC(=O)C[N+]1(Cc2ccccc2)CCCCCC1.[Br-]` [Compound 76A]: the “PAMPA (10^−6 cm/s)” value in data set [2] is “+ (“+” (<0.1 10^−6 cm/s))”. The IC50 at NaV1.7 [3] is 1 to 3 µM.
The matching figures for `[2H]c1c([2H])c([2H])c(C[N+]2(CC(=O)Nc3c(C)cccc3C)CCCCCC2)c([2H])c1[2H].[Cl-]` [Compound 33A, 1-(2-((2,6-dimethylphenyl)amino)-2-oxoethyl)-1-((phenyl-d5)methyl) azepan-1-ium chloride]: “+ (“+” (<0.1 10^−6 cm/s))” and 0.3 to 1 µM.
In the case of `Cc1cccc(C)c1N1CCC([N+]2(Cc3ccccc3)CCCCC2)C1=O.[Br-]` (stereo not shown) [Compound 89A, 1-benzyl-1-(1-(2,6-dimethylphenyl)-2-oxopyrrolidin-3-yl)piperidin-1-ium bromide], the IC50 was over 10 µM at NaV1.7 [1] and 1 to 3 µM on NaV1.7 [3]. The “PAMPA (10^−6 cm/s)” value in data set [2] is “++ (“++” (0.1-2.0 10^−6 cm/s))”.
On the same counts, the results for `COC(=O)c1ccc(C[N+]2(CC(=O)Nc3c(C)cccc3C)CCCCC2)cc1.[Br-]` [Compound 36A, 1-(2-((2,6-dimethylphenyl)amino)-2-oxoethyl)-1-(4-(methoxycarbonyl)benzyl) piperidin-1-ium bromide] are over 10 µM, 3 to 10 µM and “+ (“+” (<0.1 10^−6 cm/s))”.
Regarding `Cc1cccc(C)c1NC(=O)C[N+]1(Cc2ccccc2)CCCC(C(=O)NC(C)C)C1` (stereo not shown) [Compound 56A], in data set [2], the “PAMPA (10^−6 cm/s)” value was “+ (“+” (<0.1 10^−6 cm/s))”. Besides, the IC50 at NaV1.7 [3] fell in the range of 1 to 3 µM.
As for `CCOc1cccc(C)c1NC(=O)C[N+]1(Cc2ccccc2)CCCCCC1.[Br-]` [Compound 77A], the IC50 was in the range of 1 to 3 µM on NaV1.7 [1] and 0.3 to 1 µM on NaV1.7 [3]. Moreover, in data set [2], the “PAMPA (10^−6 cm/s)” value was “+ (“+” (<0.1 10^−6 cm/s))”.
On the same counts, the results for `CCOC(=O)C1CCC[N+](CC(=O)Nc2c(C)cccc2C)(Cc2ccccc2)C1.[Br-]` (stereo not shown) [Compound 45A, 1-benzyl-1-(2-((2,6-dimethylphenyl)amino)-2-oxoethyl)-3-(ethoxycarbonyl) piperidin-1-ium bromide] are over 10 µM, 0.3 to 1 µM and “+ (“+” (<0.1 10^−6 cm/s))”.
On the same counts, the results for `CCC(=O)Oc1cccc(C)c1NC(=O)C[N+]1(Cc2ccccc2)CCCCCC1.[Br-]` [Compound 80A, 1-benzyl-1-(2-((2-methyl-6-(propionyloxy)phenyl)amino)-2-oxoethyl) azepan-1-ium bromide] are over 10 µM, 0.3 to 1 µM and “+ (“+” (<0.1 10^−6 cm/s))”.
For the molecule `Cc1cccc(C)c1NC(=O)C[N+]1(Cc2ccccc2)CCCC(C(=O)N(C)C)C1.[Br-]` (stereo not shown) [Compound 65A], in data set [2], the “PAMPA (10^−6 cm/s)” value was “+ (“+” (<0.1 10^−6 cm/s))”. The IC50 at NaV1.7 [3] lay within 0.3 to 1 µM.
For `CC[N+](CC)(CCCc1ccccc1)CC(=O)Nc1c(C)cccc1C.[Br-]` [Compound 86A, N-(2-((2,6-dimethylphenyl)amino)-2-oxoethyl)-N, N-diethyl-3-phenylpropan-1-aminium bromide], the figures for the IC50 on NaV1.7 [1] and on NaV1.7 [3] were over 10 µM and 1 to 3 µM, respectively. Moreover, the “PAMPA (10^−6 cm/s)” value in data set [2] was “+ (“+” (<0.1 10^−6 cm/s))”.
On the same counts, the results for `Cc1cccc(C)c1NC(=O)C[N+]1(Cc2ccccc2)CCCC(C(N)=O)C1.[Br-]` (mixture of isomers) [Compound 53A, 1-benzyl-3-carbamoyl-1-(2-((2,6-dimethylphenyl)amino)-2-oxoethyl) piperidin-1-ium bromide] are over 10 µM, 0.3 to 1 µM and “+ (“+” (<0.1 10^−6 cm/s))”.
In the case of `COc1cccc(C)c1NC(=O)C[N+]1(Cc2ccccc2)CCCCCC1` [Compound 71A], the “PAMPA (10^−6 cm/s)” value in data set [2] is “+ (“+” (<0.1 10^−6 cm/s))”. The IC50 on NaV1.7 [3] lay in the range of 0.3 to 1 µM.
The matching figures for `Cc1cccc(C#N)c1NC(=O)C[N+]1(Cc2ccccc2)CCCCCC1.[Br-]` [Compound 72A]: “+ (“+” (<0.1 10^−6 cm/s))” and 0.3 to 1 µM.

(Values after patent US11603355B2, “Charged ion channel blockers and methods for use” (Nocion Therapeutics, Inc., priority 2019, dated 2023).)
